# Results from ChEMBL document CHEMBL3046397, “Synthesis and Insecticidal Activity of 4-1, 2, 4-Thiadiazolin-3-ones” (J Pestic Sci, 1994).
# Experiments:
# Spodoptera litura [1] = assay: Ovicidal activity against […] Spodoptera litura in paraffin paper assessed as egg mortality at 125 ppm at 25 degC, 65% RH measured after 7 days by egg dipping method; format: functional; conditions: 168 h
# Spodoptera litura [2] = assay: Insecticidal activity against third-instar larvae of Spodoptera litura in compound treated sweet potato leaves assessed as mortality at 2 to 4 ppm at 25 degC, 65% RH measured after 5 days by leaf dipping method; format: functional
# Mythimna separata [3] = assay: Insecticidal activity against third-instar larvae Mythimna separata (Oriental armyworm) in compound treated maize leaves assessed as mortality at 0.25 to 1 ppm at 25 degC, 65% RH measured after 5 days by leaf dipping method; format: functional
# Spodoptera litura [4] = assay: Ovicidal activity against […] Spodoptera litura in paraffin paper assessed as egg mortality at 1 to 4 ppm at 25 degC, 65% RH measured after 7 days by egg dipping method; format: functional
# Mythimna separata [5] = assay: Insecticidal activity against third-instar larvae Mythimna separata (Oriental armyworm) in compound treated maize leaves assessed as mortality at 8 to 31 ppm at 25 degC, 65% RH measured after 5 days by leaf dipping method; format: functional
# Spodoptera litura [6] = assay: Ovicidal activity against […] Spodoptera litura in paraffin paper assessed as egg mortality at 8 to 16 ppm at 25 degC, 65% RH measured after 7 days by egg dipping method; format: functional
# Spodoptera litura [7] = assay: Insecticidal activity against third-instar larvae of Spodoptera litura in compound treated sweet potato leaves assessed as mortality at 8 to 31 ppm at 25 degC, 65% RH measured after 5 days by leaf dipping method; format: functional
# Spodoptera litura [8] = assay: Insecticidal activity against third-instar larvae of Spodoptera litura in compound treated sweet potato leaves assessed as mortality at 31 ppm at 25 degC, 65% RH measured after 5 days by leaf dipping method; format: functional; conditions: foliar, 120 h
# Spodoptera litura [9] = assay: Insecticidal activity against third-instar larvae of Spodoptera litura in compound treated sweet potato leaves assessed as mortality at 0.25 to 1 ppm at 25 degC, 65% RH measured after 5 days by leaf dipping method; format: functional
# Mythimna separata [10] = assay: Insecticidal activity against third-instar larvae Mythimna separata (Oriental armyworm) in compound treated maize leaves assessed as mortality at 0.1 ppm at 25 degC, 65% RH measured after 5 days by leaf dipping method; format: functional; conditions: foliar, 120 h
# Mythimna separata [11] = assay: Insecticidal activity against third-instar larvae Mythimna separata (Oriental armyworm) in compound treated maize leaves assessed as mortality at 2 to 4 ppm at 25 degC, 65% RH measured after 5 days by leaf dipping method; format: functional
# Spodoptera litura [12] = assay: Ovicidal activity against […] Spodoptera litura in paraffin paper assessed as egg mortality at 0.5 ppm at 25 degC, 65% RH measured after 7 days by egg dipping method; format: functional; conditions: 168 h
# Spodoptera litura [13] = assay: Insecticidal activity against third-instar larvae of Spodoptera litura in compound treated sweet potato leaves assessed as mortality at 0.1 ppm at 25 degC, 65% RH measured after 5 days by leaf dipping method; format: functional; conditions: foliar, 120 h
# [14] = Metabolic stability in Spodoptera litura larvae feaces; format: ADME, organism-based; conditions: faeces, read-out: Drug recovery
# [15] = Stability of the compound under natural condition at 25 degC for 24 hr; format: physicochemical
# Spodoptera litura [16] = assay: Metabolic stability in homogenized Spodoptera litura larvae; format: ADME, organism-based; conditions: in vivo
# Spodoptera litura [17] = assay: Ovicidal activity against […] Spodoptera litura in paraffin paper assessed as egg mortality at 31 to 125 ppm at 25 degC, 65% RH measured after 7 days by egg dipping method; format: functional
# Mythimna separata [18] = assay: Insecticidal activity against third-instar larvae Mythimna separata (Oriental armyworm) in compound treated maize leaves assessed as mortality at 31 ppm at 25 degC, 65% RH measured after 5 days by leaf dipping method; format: functional; conditions: foliar, 120 h
Structure (SMILES),mortality at 125 ppm (Spodoptera litura [1]) [%],mortality (Spodoptera litura [6]) [%],mortality at 31 ppm (Spodoptera litura [8]) [%],mortality at 0.1 ppm (Mythimna separata [10]) [%],further results
Cc1cc(-n2sc(-c3c(F)cccc3F)nc2=O)cc(C)c1OC(F)(F)F,< 90,–,–,–,mortality (Spodoptera litura [2]): >90%; mortality (Mythimna separata [3]): >90%
O=c1nc(-c2c(F)cccc2F)sn1-c1ccc(OC(F)(F)F)cc1Cl,–,–,–,–,mortality (Spodoptera litura [4]): >90%; mortality (Spodoptera litura [2]): >90%; mortality (Mythimna separata [5]): >90%
O=c1nc(-c2ccccc2Br)sn1-c1ccc(OC(F)(F)F)cc1,–,>90,–,–,mortality (Spodoptera litura [7]): >90%; mortality (Mythimna separata [5]): >90%
O=c1nc(-c2c(Cl)cccc2Cl)sn1-c1ccc(Cl)cc1,< 90,–,< 90,–,mortality (Mythimna separata [5]): >90%
Cc1c(OC(F)(F)F)ccc(-n2sc(-c3c(F)cccc3F)nc2=O)c1C,< 90,–,–,> 90,mortality (Spodoptera litura [9]): >90%
O=c1nc(-c2c(F)cccc2F)on1-c1ccc(OC(F)(F)F)cc1,–,>90,< 90,–,mortality (Mythimna separata [11]): >90%
O=c1nc(-c2c(Cl)cccc2Cl)on1-c1ccc(Cl)cc1,< 90,–,< 90,–,mortality (Mythimna separata [11]): >90%
O=c1nc(-c2c(F)cccc2F)sn1-c1cc(Cl)c(Oc2ncc(C(F)(F)F)cc2Cl)c(Cl)c1,< 90,–,< 90,–,mortality (Mythimna separata [3]): >90%
O=c1nc(-c2c(F)cccc2F)sn1-c1ccc(OC(F)(F)F)cc1F,–,>90,–,> 90,mortality (Spodoptera litura [9]): >90%
O=c1nc(-c2c(F)cccc2F)on1-c1ccc(C(F)(F)F)cc1,–,–,< 90,–,mortality (Mythimna separata [3]): >90%
O=c1nc(-c2ccccc2Cl)on1-c1ccc(OC(F)(F)F)cc1,< 90,–,< 90,–,mortality (Mythimna separata [3]): >90%
O=c1nc(-c2ccccc2F)sn1-c1ccc(OC(F)(F)F)cc1,–,>90,–,–,mortality (Spodoptera litura [7]): >90%; mortality (Mythimna separata [11]): >90%
O=C(NC(=O)c1c(F)cccc1F)Nc1ccc(OC(F)(F)F)c(F)c1F,–,–,–,> 90,mortality at 0.5 ppm (Spodoptera litura [12]): > 90%; mortality at 0.1 ppm (Spodoptera litura [13]): > 90%
O=c1nc(-c2c(F)cccc2F)sn1-c1ccc(OC(F)(F)F)c(F)c1F,–,>90,–,> 90,mortality at 0.1 ppm (Spodoptera litura [13]): > 90%
Cc1ccccc1-c1nc(=O)n(-c2ccc(OC(F)(F)F)cc2)s1,–,>90,< 90,–,mortality (Mythimna separata [11]): >90%
O=c1nc(-c2c(F)cccc2F)sn1-c1ccc(C(F)(F)F)cc1,–,>90,< 90,> 90,–
O=c1nc(-c2c(F)cccc2F)on1-c1ccc(OC(F)(F)F)c(Cl)c1,< 90,–,–,> 90,mortality (Spodoptera litura [2]): >90%
O=c1nc(-c2ccccc2Cl)sn1-c1ccc(OC(F)(F)F)cc1,–,–,–,–,dose excreted [14]: 3.5%; Stability [15]: Stable; Drug recovery (Spodoptera litura [16]): 10.4%; mortality (Spodoptera litura [4]): >90%; mortality (Spodoptera litura [7]): >90%; mortality (Mythimna separata [3]): >90%
O=c1nc(-c2c(F)cccc2F)sn1-c1cc(F)c(OC(F)(F)F)cc1F,–,>90,–,> 90,mortality (Spodoptera litura [9]): >90%
Cc1cc(OC(F)(F)F)ccc1-n1sc(-c2c(F)cccc2F)nc1=O,–,–,–,> 90,mortality (Spodoptera litura [17]): >90%; mortality (Spodoptera litura [7]): >90%
O=C(NC(=O)c1c(F)cccc1F)Nc1cc(F)c(OC(F)(F)F)cc1F,–,–,–,> 90,mortality at 0.5 ppm (Spodoptera litura [12]): > 90%; mortality at 0.1 ppm (Spodoptera litura [13]): > 90%
O=c1nc(-c2c(F)cccc2F)on1-c1ccc(Cl)cc1,< 90,–,–,–,mortality (Mythimna separata [3]): >90%

Structure (SMILES),mortality at 125 ppm (Spodoptera litura [1]) [%],mortality (Spodoptera litura [6]) [%],mortality at 31 ppm (Spodoptera litura [8]) [%],mortality at 0.1 ppm (Mythimna separata [10]) [%],further results
Cc1ccccc1-c1nc(=O)n(-c2ccc(OC(F)(F)F)cc2)o1,–,>90,< 90,–,mortality (Mythimna separata [5]): >90%
O=C(NC(=O)c1ccccc1Cl)Nc1ccc(OC(F)(F)F)cc1 [TRIFLUMURON],–,–,–,> 90,mortality at 0.5 ppm (Spodoptera litura [12]): > 90%; mortality (Spodoptera litura [7]): >90%
O=c1nc(-c2c(F)cccc2F)sn1-c1cc(Cl)c(OC(F)(F)F)cc1Cl,< 90,–,–,–,mortality (Spodoptera litura [2]): >90%; mortality (Mythimna separata [3]): >90%
O=c1nc(-c2c(F)cccc2F)sn1-c1ccc(OC(F)(F)F)c(F)c1,–,>90,–,–,mortality (Spodoptera litura [2]): >90%; mortality (Mythimna separata [3]): >90%
O=c1nc(-c2c(F)cccc2F)sn1-c1ccc(OC(F)(F)F)c(Cl)c1,–,–,< 90,> 90,mortality (Spodoptera litura [17]): >90%
O=c1nc(-c2c(F)cccc2F)sn1-c1ccc(OC(F)(F)F)c(F)c1Cl,–,–,–,> 90,mortality (Spodoptera litura [17]): >90%; mortality at 0.1 ppm (Spodoptera litura [13]): > 90%
O=c1nc(-c2c(F)cccc2F)sn1-c1ccc(Cl)cc1,< 90,–,< 90,–,mortality (Mythimna separata [3]): >90%
O=c1nc(-c2c(F)cccc2F)sn1-c1ccc(OC(F)(F)F)c(Cl)c1Cl,< 90,–,–,–,mortality (Spodoptera litura [9]): >90%; mortality (Mythimna separata [3]): >90%
Cc1cc(-n2sc(-c3c(F)cccc3F)nc2=O)ccc1OC(F)(F)F,–,–,–,> 90,mortality (Spodoptera litura [17]): >90%; mortality (Spodoptera litura [2]): >90%
O=c1nc(-c2c(F)cccc2F)sn1-c1cc(Cl)c(F)c(Cl)c1F,–,>90,< 90,–,mortality at 31 ppm (Mythimna separata [18]): < 90%
O=c1nc(-c2c(F)cccc2F)sn1-c1cc(Cl)c(OC(F)(F)F)cc1F,–,–,–,> 90,mortality (Spodoptera litura [4]): >90%; mortality (Spodoptera litura [2]): >90%
O=c1nc(-c2c(F)cccc2F)sn1-c1ccc(OC(F)(F)F)cc1,–,>90,–,> 90,mortality (Spodoptera litura [7]): >90%
O=c1nc(-c2ccccc2C(F)(F)F)sn1-c1ccc(OC(F)(F)F)cc1,< 90,–,< 90,–,mortality at 31 ppm (Mythimna separata [18]): < 90%
O=c1nc(-c2ccccc2Cl)sn1-c1ccc(Cl)cc1,< 90,–,–,–,mortality at 31 ppm (Mythimna separata [18]): < 90%
O=c1nc(-c2c(Cl)cccc2Cl)sn1-c1ccc(OC(F)(F)F)cc1,< 90,–,< 90,–,mortality (Mythimna separata [11]): >90%
Cc1cc(-n2sc(-c3c(F)cccc3F)nc2=O)c(C)cc1OC(F)(F)F,< 90,–,–,> 90,mortality (Spodoptera litura [2]): >90%
O=C(NC(=O)c1c(F)cccc1F)Nc1ccc(Cl)cc1 [DIFLUBENZURON],–,–,< 90,> 90,mortality (Spodoptera litura [4]): >90%
Cc1c(OC(F)(F)F)ccc(-n2sc(-c3c(F)cccc3F)nc2=O)c1F,–,>90,–,> 90,mortality (Spodoptera litura [9]): >90%
O=c1nc(-c2c(F)cccc2F)sn1-c1cc(F)c(OC(F)(F)F)cc1Cl,–,>90,–,–,mortality at 0.1 ppm (Spodoptera litura [13]): > 90%; mortality (Mythimna separata [3]): >90%
O=c1nc(-c2c(F)cccc2F)sn1-c1ccc(OC(F)(F)F)c(Cl)c1F,< 90,–,–,> 90,mortality (Spodoptera litura [9]): >90%
O=c1nc(-c2c(F)cccc2Cl)sn1-c1ccc(OC(F)(F)F)cc1,–,>90,–,–,mortality (Mythimna separata [3]): >90%
